Converted amounts (≈) assume the structure as drawn. The source made the active and inactive calls. The calls are words filed in the database; no cut-off is given here.
How the values were obtained:
[1] = target: Voltage-gated inwardly rectifying potassium channel KCNH2 (Homo sapiens, UniProt Q12809); experiment: Inhibition of human ERG expressed in CHO cells by patch clamp method; assay type: cell-based
Cytochrome P450 2C19 = Cytochrome P450 2C19 (Homo sapiens, UniProt P33261); experiment: Inhibition of CYP2C19 in human liver microsomes in presence of NADPH; assay type: ADME
[2] = Cmax in Sprague-Dawley rat at 2.5 mg/kg, iv measured upto 24 hrs by LC-MS/MS analysis; assay type: ADME, organism-based; design: route intravenous, dose 2.5 mg/kg, time <=24; settings: in vivo
[3] = Effective permeability of compound by PAMPA-BBB assay; assay type: ADME; settings: read-out: permeability
[4] = target: High affinity 3',5'-cyclic-AMP phosphodiesterase 7A (Homo sapiens, UniProt Q13946); experiment: Inhibition of PDE7A1 (130-482 residues) (unknown origin) expressed in Escherichia coli BL21 using [3H]-cAMP substrate incubated for 15 mins by liquid scintillation counting method
[5] = Half life in Sprague-Dawley rat at 10 mg/kg, po measured upto 24 hrs by LC-MS/MS analysis; assay type: ADME, organism-based; settings: in vivo
[6] = Oral bioavailability in Sprague-Dawley rat at 10 mg/kg measured upto 24 hrs by LC-MS/MS analysis; assay type: ADME, organism-based; settings: in vivo
Mus musculus [7] = experiment: Anti-VaD activity against UCCAO-induced spatial memory deficient C57BL/6J mouse model assessed as improvement in spatial learning and memory by measuring increased the residence time in the platform area at 3 mg/kg, po administered for 21 days by Morris water maze test; assay type: functional, organism-based; settings: time 21.0 day
Mus musculus [8] = experiment: Anti-VaD activity against UCCAO-induced spatial memory deficient C57BL/6J mouse model assessed as improvement in spatial learning and memory by measuring reduction in escape latency at 3 mg/kg, po administered for 21 days by Morris water maze test; assay type: functional, organism-based; settings: time 21.0 day
Cytochrome P450 2D6 = Cytochrome P450 2D6 (Homo sapiens, UniProt P10635); experiment: Inhibition of CYP2D6 in human liver microsomes in presence of NADPH; assay type: ADME
Mus musculus [9] = experiment: Anti-VaD activity against UCCAO-induced spatial memory deficient C57BL/6J mouse model assessed as improvement in spatial learning and memory by measuring decrease in error rate at 3 mg/kg, po administered for 21 days by passive avoidance test; assay type: functional, organism-based; settings: time 21.0 day
Mus musculus [10] = experiment: Anti-VaD activity against UCCAO-induced spatial memory deficient C57BL/6J mouse model assessed as improvement in spatial learning and memory by measuring increase in latency time at 3 mg/kg, po administered for 21 days by passive avoidance test; assay type: functional, organism-based; settings: time 21.0 day
[11] = Tmax in Sprague-Dawley rat at 10 mg/kg, po measured upto 24 hrs by LC-MS/MS analysis; assay type: ADME, organism-based; settings: in vivo
[12] = target: Dual 3',5'-cyclic-AMP and -GMP phosphodiesterase 11A (Homo sapiens, UniProt Q9HCR9); experiment: Inhibition of PDE11A (588-911 residues) (unknown origin) expressed in Escherichia coli BL21 using [3H]-cAMP substrate incubated for 15 mins by liquid scintillation counting method
Cytochrome P450 2C9 = Cytochrome P450 2C9 (Homo sapiens, UniProt P11712); experiment: Inhibition of CYP2C9 in human liver microsomes in presence of NADPH; assay type: ADME
[13] = MRT (0 to t) in Sprague-Dawley rat at 2.5 mg/kg, iv measured upto 24 hrs by LC-MS/MS analysis; assay type: ADME, organism-based; settings: in vivo
[14] = MRT (0 to t) in Sprague-Dawley rat at 10 mg/kg, po measured upto 24 hrs by LC-MS/MS analysis; assay type: ADME, organism-based; settings: in vivo
[15] = AUC (0 to t) in Sprague-Dawley rat at 2.5 mg/kg, iv measured upto 24 hrs by LC-MS/MS analysis; assay type: ADME, organism-based; design: route intravenous, dose 2.5 mg/kg, time <=24; settings: in vivo
[16] = target: cGMP-inhibited 3',5'-cyclic phosphodiesterase 3A (Homo sapiens, UniProt Q14432); experiment: Inhibition of PDE3A (679-1087 residues) (unknown origin) expressed in Escherichia coli BL21 using [3H]-cAMP substrate incubated for 15 mins by liquid scintillation counting method
Cytochrome P450 3A4 = Cytochrome P450 3A4 (Homo sapiens, UniProt P08684); experiment: Inhibition of CYP3A4 in human liver microsomes using midazolam as substrate in presence of NADPH; assay type: ADME
[17] = target: High affinity cGMP-specific 3',5'-cyclic phosphodiesterase 9A (Homo sapiens, UniProt O76083); experiment: Inhibition of PDE9A2 (181-506 residues) (unknown origin) expressed in Escherichia coli BL21 using [3H]-cAMP substrate incubated for 15 mins by liquid scintillation counting method
[18] = Half life in Sprague-Dawley rat at 2.5 mg/kg, iv measured upto 24 hrs by LC-MS/MS analysis; assay type: ADME, organism-based; settings: in vivo
[19] = Dissociation constant, pKa of the compound; assay type: physicochemical
[20] = AUC (0 to t) in Sprague-Dawley rat at 10 mg/kg, po measured upto 24 hrs by LC-MS/MS analysis; assay type: ADME, organism-based; design: route oral, dose 10 mg/kg, time <=24; settings: in vivo
Cytochrome P450 1A2 = target: T1, Cytochrome P450 1A2 (Homo sapiens, UniProt P05177); experiment: Inhibition of CYP1A2 in human liver microsomes in presence of NADPH; assay type: ADME
T1 sequence (P05177 whole entry): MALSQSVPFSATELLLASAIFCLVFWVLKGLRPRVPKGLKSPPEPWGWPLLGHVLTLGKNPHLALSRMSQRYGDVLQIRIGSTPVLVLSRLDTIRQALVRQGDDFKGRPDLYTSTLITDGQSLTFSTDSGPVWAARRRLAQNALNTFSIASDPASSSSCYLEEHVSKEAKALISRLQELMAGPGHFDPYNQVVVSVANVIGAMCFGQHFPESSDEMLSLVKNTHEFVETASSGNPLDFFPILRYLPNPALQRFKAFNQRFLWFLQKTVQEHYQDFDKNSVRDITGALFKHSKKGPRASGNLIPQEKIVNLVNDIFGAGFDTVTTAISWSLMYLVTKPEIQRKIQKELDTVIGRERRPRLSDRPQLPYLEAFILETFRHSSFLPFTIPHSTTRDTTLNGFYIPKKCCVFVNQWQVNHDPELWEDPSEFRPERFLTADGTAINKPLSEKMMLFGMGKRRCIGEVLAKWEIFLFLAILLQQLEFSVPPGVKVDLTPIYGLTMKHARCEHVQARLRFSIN

[21] = target: Dual specificity calcium/calmodulin-dependent 3',5'-cyclic nucleotide phosphodiesterase 1B (Homo sapiens, UniProt Q01064); experiment: Inhibition of PDE1B (146-506 residues) (unknown origin) expressed in Escherichia coli BL21 using [3H]-cAMP substrate incubated for 15 mins by liquid scintillation counting method
[22] = Aqueous solubility of compound at pH 7.3 by HPLC analysis; assay type: physicochemical; settings: aqueous medium
[23] = Inhibition of PDE5A1 (535-860 residues) (unknown origin) expressed in Escherichia coli BL21 using [3H]-cAMP substrate incubated for 15 mins by liquid scintillation counting method; design: species or system Homo sapiens
[24] = AUC (0 to infinity) in Sprague-Dawley rat at 10 mg/kg, po measured upto 24 hrs by LC-MS/MS analysis; assay type: ADME, organism-based; design: route oral, dose 10 mg/kg, time <=24; settings: in vivo
[25] = AUC (0 to infinity) in Sprague-Dawley rat at 2.5 mg/kg, iv measured upto 24 hrs by LC-MS/MS analysis; assay type: ADME, organism-based; design: route intravenous, dose 2.5 mg/kg, time <=24; settings: in vivo
[26] = Cmax in Sprague-Dawley rat at 10 mg/kg, po measured upto 24 hrs by LC-MS/MS analysis; assay type: ADME, organism-based; design: route oral, dose 10 mg/kg, time <=24; settings: in vivo
[27] = Lipophilicity, log P of the compound; assay type: physicochemical; settings: octanol/water
[28] = Protein binding in human plasma; assay type: ADME, cell-free; settings: read-out: PPB (converted)
[29] = Tmax in Sprague-Dawley rat at 2.5 mg/kg, iv measured upto 24 hrs by LC-MS/MS analysis; assay type: ADME, organism-based; settings: in vivo
Mus musculus [30] = experiment: Anti-VaD activity against UCCAO-induced spatial memory deficient C57BL/6J mouse model assessed as improvement in spatial learning and memory by measuring increased the frequency of platform site crossing at 3 mg/kg, po administered for 21 days by Morris water maze test; assay type: functional, organism-based; settings: time 21.0 day
[31] = target: T2, High affinity cAMP-specific and IBMX-insensitive 3',5'-cyclic phosphodiesterase 8A (Homo sapiens, UniProt O60658); experiment: Inhibition of PDE8A1 (480 to 820 residues) (unknown origin) expressed in Escherichia coli BL21 using [3H]-cAMP substrate at 1 uM incubated for 15 mins by liquid scintillation counting method relative to control
[32] = target: T2, High affinity cAMP-specific and IBMX-insensitive 3',5'-cyclic phosphodiesterase 8A; experiment: Inhibition of PDE8A1 (480 to 820 residues) (unknown origin) expressed in Escherichia coli BL21 using [3H]-cAMP substrate incubated for 15 mins by liquid scintillation counting method
Mus musculus [33] = experiment: Anti-VaD activity against UCCAO-induced spatial memory deficient C57BL/6J mouse model assessed as improvement in spatial learning and memory by measuring increased the residence time in the platform area at 1 mg/kg, po administered for 21 days by Morris water maze test; assay type: functional, organism-based; settings: time 21.0 day
Mus musculus [34] = experiment: Anti-VaD activity against UCCAO-induced spatial memory deficient C57BL/6J mouse model assessed as improvement in spatial learning and memory by measuring increase in latency time at 1 mg/kg, po administered for 21 days by passive avoidance test; assay type: functional, organism-based; settings: time 21.0 day
Mus musculus [35] = experiment: Anti-VaD activity against UCCAO-induced spatial memory deficient C57BL/6J mouse model assessed as improvement in spatial learning and memory by measuring increased the frequency of platform site crossing at 1 mg/kg, po administered for 21 days by Morris water maze test; assay type: functional, organism-based; settings: time 21.0 day
Mus musculus [36] = experiment: Anti-VaD activity against UCCAO-induced spatial memory deficient C57BL/6J mouse model assessed as improvement in spatial learning and memory by measuring decrease in error rate at 1 mg/kg, po administered for 21 days by passive avoidance test; assay type: functional, organism-based; settings: time 21.0 day
Mus musculus [37] = experiment: Anti-VaD activity against UCCAO-induced spatial memory deficient C57BL/6J mouse model assessed as improvement in spatial learning and memory by measuring reduction in escape latency at 1 mg/kg, po administered for 21 days by Morris water maze test; assay type: functional, organism-based; settings: time 21.0 day

T2 sequence (O60658 whole entry, the tested form may be a part): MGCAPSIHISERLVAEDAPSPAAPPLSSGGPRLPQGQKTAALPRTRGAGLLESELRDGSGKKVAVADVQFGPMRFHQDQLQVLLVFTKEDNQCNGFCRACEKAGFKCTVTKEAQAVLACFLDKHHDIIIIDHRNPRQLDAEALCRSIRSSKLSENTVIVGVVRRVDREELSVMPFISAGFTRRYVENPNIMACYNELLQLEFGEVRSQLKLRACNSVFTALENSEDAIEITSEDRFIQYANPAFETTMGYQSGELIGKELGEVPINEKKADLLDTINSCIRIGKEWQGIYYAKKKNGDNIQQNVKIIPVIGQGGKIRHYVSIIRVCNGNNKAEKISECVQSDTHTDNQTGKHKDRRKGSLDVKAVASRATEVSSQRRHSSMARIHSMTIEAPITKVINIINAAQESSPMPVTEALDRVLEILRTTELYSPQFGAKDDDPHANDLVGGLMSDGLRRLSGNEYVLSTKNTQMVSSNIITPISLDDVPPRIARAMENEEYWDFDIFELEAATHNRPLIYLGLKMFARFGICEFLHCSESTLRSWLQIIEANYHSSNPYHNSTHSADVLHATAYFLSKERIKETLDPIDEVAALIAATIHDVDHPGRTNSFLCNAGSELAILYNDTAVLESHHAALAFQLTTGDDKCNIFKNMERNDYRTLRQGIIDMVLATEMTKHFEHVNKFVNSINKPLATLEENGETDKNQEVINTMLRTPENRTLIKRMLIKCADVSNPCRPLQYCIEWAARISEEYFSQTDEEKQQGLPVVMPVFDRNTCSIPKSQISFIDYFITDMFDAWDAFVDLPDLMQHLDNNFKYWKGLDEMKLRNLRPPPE
Sequence of Cytochrome P450 2C19 (P33261 whole entry): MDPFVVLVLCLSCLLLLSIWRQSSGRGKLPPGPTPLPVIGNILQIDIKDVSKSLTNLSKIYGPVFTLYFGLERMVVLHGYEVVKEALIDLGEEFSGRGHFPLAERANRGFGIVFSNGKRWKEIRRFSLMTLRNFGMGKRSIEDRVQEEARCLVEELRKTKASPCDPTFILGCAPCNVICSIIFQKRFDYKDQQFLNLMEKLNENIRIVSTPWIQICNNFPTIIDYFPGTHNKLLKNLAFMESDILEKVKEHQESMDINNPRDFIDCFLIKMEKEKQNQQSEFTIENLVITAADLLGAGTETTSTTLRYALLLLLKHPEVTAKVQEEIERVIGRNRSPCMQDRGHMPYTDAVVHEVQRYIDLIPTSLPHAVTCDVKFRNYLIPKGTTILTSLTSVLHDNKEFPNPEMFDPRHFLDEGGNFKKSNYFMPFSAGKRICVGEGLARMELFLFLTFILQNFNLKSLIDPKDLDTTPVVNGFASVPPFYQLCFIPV
Sequence of cGMP-inhibited 3',5'-cyclic phosphodiesterase 3A (Q14432 whole entry, the tested form may be a part): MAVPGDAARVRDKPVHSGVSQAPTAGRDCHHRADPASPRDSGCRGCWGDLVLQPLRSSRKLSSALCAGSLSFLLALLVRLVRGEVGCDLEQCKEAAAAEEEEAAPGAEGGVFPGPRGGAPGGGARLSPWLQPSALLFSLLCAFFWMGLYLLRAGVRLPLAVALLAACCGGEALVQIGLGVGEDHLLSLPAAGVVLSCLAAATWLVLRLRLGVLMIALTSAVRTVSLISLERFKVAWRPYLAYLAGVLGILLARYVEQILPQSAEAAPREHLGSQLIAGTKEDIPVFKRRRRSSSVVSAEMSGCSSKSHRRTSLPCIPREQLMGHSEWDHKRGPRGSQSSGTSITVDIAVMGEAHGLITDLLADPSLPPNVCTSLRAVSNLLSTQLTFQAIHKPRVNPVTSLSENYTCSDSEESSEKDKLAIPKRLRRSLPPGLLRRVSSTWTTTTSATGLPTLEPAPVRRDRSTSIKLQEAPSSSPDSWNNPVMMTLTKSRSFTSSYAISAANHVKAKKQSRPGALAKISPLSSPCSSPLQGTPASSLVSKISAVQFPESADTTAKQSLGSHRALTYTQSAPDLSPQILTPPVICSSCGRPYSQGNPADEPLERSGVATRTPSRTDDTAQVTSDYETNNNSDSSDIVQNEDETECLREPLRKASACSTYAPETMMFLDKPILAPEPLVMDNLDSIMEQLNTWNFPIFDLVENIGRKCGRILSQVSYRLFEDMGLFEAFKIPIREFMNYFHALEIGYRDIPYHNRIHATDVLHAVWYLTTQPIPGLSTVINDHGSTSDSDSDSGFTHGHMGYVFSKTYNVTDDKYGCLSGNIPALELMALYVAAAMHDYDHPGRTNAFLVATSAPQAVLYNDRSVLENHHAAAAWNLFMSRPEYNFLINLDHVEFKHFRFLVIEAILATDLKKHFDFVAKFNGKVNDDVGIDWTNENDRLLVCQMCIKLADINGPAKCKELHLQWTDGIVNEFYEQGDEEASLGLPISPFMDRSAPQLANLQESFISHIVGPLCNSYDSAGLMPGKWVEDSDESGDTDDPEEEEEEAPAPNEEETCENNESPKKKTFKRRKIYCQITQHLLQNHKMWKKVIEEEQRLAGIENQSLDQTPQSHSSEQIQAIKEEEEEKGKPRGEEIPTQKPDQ
Sequence of Voltage-gated inwardly rectifying potassium channel KCNH2 (Q12809 whole entry): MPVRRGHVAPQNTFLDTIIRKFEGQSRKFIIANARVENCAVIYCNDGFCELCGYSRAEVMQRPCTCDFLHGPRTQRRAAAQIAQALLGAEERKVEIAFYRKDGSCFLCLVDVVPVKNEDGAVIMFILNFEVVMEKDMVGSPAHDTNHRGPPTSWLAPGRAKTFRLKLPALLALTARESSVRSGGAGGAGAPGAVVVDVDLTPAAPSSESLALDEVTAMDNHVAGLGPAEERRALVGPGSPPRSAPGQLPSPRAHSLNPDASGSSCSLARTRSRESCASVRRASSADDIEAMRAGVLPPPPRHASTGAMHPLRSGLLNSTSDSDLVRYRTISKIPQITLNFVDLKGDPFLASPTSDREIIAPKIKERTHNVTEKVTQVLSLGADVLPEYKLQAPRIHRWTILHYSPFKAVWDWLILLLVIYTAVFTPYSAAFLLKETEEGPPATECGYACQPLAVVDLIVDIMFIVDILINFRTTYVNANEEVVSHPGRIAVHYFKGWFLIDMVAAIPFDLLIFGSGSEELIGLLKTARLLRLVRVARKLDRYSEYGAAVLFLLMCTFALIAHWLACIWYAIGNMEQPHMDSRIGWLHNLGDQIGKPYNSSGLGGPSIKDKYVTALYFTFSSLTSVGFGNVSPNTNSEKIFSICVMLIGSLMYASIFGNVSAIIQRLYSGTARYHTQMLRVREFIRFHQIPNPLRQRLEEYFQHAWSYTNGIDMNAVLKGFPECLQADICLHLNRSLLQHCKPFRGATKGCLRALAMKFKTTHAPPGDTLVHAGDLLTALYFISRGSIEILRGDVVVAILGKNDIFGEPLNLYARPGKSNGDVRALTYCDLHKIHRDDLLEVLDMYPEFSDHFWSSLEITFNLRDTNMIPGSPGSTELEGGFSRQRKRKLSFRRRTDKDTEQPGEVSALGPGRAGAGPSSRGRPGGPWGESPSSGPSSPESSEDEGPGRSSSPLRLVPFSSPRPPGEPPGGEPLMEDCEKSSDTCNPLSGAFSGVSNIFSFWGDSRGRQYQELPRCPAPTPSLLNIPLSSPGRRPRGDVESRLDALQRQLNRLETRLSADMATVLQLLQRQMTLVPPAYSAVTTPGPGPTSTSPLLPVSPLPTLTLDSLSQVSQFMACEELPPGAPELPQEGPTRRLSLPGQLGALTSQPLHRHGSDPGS
Sequence of Dual 3',5'-cyclic-AMP and -GMP phosphodiesterase 11A (Q9HCR9 whole entry, the tested form may be a part): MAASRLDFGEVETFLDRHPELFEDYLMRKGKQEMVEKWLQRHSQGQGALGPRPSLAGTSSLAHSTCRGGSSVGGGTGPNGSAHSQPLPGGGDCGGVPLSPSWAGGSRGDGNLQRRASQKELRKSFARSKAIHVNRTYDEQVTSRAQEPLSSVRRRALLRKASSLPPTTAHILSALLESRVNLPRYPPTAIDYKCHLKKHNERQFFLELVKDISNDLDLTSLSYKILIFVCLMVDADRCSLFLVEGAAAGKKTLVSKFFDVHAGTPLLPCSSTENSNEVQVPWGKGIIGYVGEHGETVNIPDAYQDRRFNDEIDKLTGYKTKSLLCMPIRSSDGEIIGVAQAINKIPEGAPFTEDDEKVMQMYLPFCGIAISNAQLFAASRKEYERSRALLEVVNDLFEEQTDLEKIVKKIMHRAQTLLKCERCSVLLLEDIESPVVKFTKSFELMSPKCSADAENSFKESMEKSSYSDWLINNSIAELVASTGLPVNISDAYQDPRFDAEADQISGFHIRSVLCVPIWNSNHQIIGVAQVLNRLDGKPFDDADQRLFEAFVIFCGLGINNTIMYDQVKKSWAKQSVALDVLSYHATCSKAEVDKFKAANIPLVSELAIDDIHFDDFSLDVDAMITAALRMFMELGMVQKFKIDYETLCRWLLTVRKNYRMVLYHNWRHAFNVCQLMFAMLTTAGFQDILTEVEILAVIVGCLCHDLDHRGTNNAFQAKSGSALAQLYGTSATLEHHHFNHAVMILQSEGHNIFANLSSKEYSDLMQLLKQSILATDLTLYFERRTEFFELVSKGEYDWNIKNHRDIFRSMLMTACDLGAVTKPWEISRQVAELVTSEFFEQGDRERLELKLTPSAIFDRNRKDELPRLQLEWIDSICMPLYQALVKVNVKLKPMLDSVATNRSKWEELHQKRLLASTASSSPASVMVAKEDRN
Sequence of Dual specificity calcium/calmodulin-dependent 3',5'-cyclic nucleotide phosphodiesterase 1B (Q01064 whole entry, the tested form may be a part): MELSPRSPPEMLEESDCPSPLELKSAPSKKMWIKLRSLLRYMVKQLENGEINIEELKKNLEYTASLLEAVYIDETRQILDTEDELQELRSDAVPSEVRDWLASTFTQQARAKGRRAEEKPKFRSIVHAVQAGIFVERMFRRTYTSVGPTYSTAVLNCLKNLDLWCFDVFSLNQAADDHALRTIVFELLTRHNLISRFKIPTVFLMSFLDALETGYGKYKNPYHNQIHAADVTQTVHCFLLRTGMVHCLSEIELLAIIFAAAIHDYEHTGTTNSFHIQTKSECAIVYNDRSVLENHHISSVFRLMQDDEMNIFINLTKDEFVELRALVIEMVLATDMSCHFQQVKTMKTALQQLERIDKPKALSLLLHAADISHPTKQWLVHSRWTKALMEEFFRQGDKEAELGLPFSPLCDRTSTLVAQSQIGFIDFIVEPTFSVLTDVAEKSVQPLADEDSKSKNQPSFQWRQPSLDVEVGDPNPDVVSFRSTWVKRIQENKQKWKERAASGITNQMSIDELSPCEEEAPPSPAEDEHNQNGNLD

C[C@@H](c1cc(OCC(F)F)ccn1)n1cnc2c(N)nc(Cl)nc21
IC50 [1]: 18 µM | IC50 (Cytochrome P450 2C19): > 25 µM | Cmax [2]: 2190 ng/mL | Papp [3]: 6 ×10⁻⁶ cm/s | IC50 [4]: > 10 µM | half-life [5]: 2.82 h | bioavailability [6]: 47% | Activity (Mus musculus [7]): Active | Activity (Mus musculus [8]): Active | IC50 (Cytochrome P450 2D6): > 25 µM | Activity (Mus musculus [9]): Active | Activity (Mus musculus [10]): Active | Tmax [11]: 4 h | IC50 [12]: > 10 µM | IC50 (Cytochrome P450 2C9): > 25 µM | MRT last at 24 h [13]: 4.48 h | MRT last at 24 h [14]: 7.2 h | AUC(0-t) at 24 h [15]: 9410 ng·h/mL | IC50 [16]: > 10 µM | IC50 (Cytochrome P450 3A4): > 25 µM | IC50 [17]: > 10 µM | half-life [18]: 2.36 h | pKa [19]: 3.69 | AUC(0-t) at 24 h [20]: 17500 ng·h/mL | IC50 (Cytochrome P450 1A2): > 25 µM | IC50 [21]: > 10 µM | solubility [22]: 108 µg/mL (≈ 304 µM) | IC50 [23]: > 10 µM | AUC(0-inf) [24]: 17600 ng·h/mL | AUC(0-inf) [25]: 9420 ng·h/mL | Cmax [26]: 1940 ng/mL | logP [27]: 3.84 | fraction unbound [28]: 0.22 | Tmax [29]: 8.4 min | Activity (Mus musculus [30]): Active

Cc1cccc(Cn2cnc3c(N)nc(Cl)nc32)n1
inhibition [31]: 14%

Nc1nc(Cl)nc2c1ncn2Cc1ccccn1
inhibition [31]: 24%

Nc1nc(Cl)nc2c1ncn2Cc1cc(OCC(F)F)ccn1
IC50 [32]: 0.36 µM

COc1cc2c(cc1OC)C(=O)C(CC1CCN(Cc3ccccc3)CC1)C2 (stereo not drawn)
Activity (Mus musculus [33]): Active | Activity (Mus musculus [34]): Active | Activity (Mus musculus [35]): Active | Activity (Mus musculus [36]): Active | Activity (Mus musculus [37]): Active

Source: ChEMBL document CHEMBL4699664, “Rational Design of 2-Chloroadenine Derivatives as Highly Selective Phosphodiesterase 8A Inhibitors” (J Med Chem, 2020)
